Results reported in patent US4667033A, “Substituted 6-(thien-2-yl)-3(2H)-pyridazinones” (A. Nattermann & Cie GmbH, priority 1983, dated 1987).

Key:
[1] = molecular target: T1, imipramin-fixation sites (Rattus norvegicus, UniProt P31652); assay: Inhibition of 3H-Imipramin binding (imipramin-fixation sites); settings: for IC50: log-probit-analysis
T1 construct: from tissue
Text: (§1) III. Determination of activity to central nervous system.
(§2) The following compounds have been tested for their activity to benzodiazepin-receptors and imipramin-fixation sites in comparison to the known compounds Amitriptylinoxid and Medazepam:
(§3) The determination of their inhibitory activity has been effected corresponding to H. W. Damm et al., Res. Comm. chem. path. Pharmacol. 22, 597-600 (1978) or, respectively, M. Briley et al., Eur. J. Pharmacol. 72, 377-380 (1981). The separation of the bound from the free ligand concentration is effected by filtration. The used ligands Flunitrazepam and Imipramin has been marked by tritium.
(§4) Half maximum inhibitory values have been determined by means of a […]

[2] = system: narcotized cat; assay: Determination of the myocardial effect in the narcotized cat; assay type: in vivo
Text: II. Determination of the myocardial effect in the narcotized cat.
10 cats of both sexes are narcotized with chloralose-urethane (0.25% urethane, 0.05% chloralose per kilogram). To ease the spontaneous respiration there was effected a tracheotomy. The following hemodynamic parameters were noted down:
The arteriel systolic and diastolic blood pressure by means of a polyethylene cathether in the right-hand Arteria femoralis registered by means of a Statham element type P23 DB. The pulse frequency was obtained from the blood pressure amplitude and registered by means of a cardiotachometer (type EKA-pulse).
The increase of isovolumetric blood pressure was determined by means of a catheter tip manometer of the type PC 350 A of the Millar Company, USA, introduced to the Arteria carotis communis left-ventricullary and was determined by subsequent differentiation (amplifier of Messrs. Sachs).
The known values have been registered continuously by a Beckmann-Dynograph of the type R. There are given the values in an interval of 2 minutes.
The test animals have been heparinized with 500 I.E. of Liquemin®.
The test compounds are dissolved as follows:
Compound A in 50% glycofurol with heating,
Compound B in 10% glycofurol and 5% HCl with heating.
The test compounds have been administered at consecutively increasing dosages at a volume of 0.1 cc./kg. (Arteria femoralis). The total time of injection was […]. The next dose has been administered only after the complete dying-out of the effect of the previous administration.

[3] = system: isolated right-hand atrium; assay: Chronotropic effect in spontaneously pulsing right-hand atrium of guinea pigs; parameters: species or system guinea pig; settings: Cavia porcellus, mean percentage change to starting value, six determinations; for activation at 100 µM: 1 × 10^-4 mol/l, A in 1 × 10^-4 molar citric acid, B in tetraglycol and dilute hydrochloric acid
Procedure: (§5) I. Test to show inotropic effectiveness in the isolated atrium of guinea pigs.
(§6) The measurements have been effected on isolated atria of guinea pigs. The effect to pulse frequency (chronotropy) is determined at the spontaneously pulsing right-hand atrium. The effect to the contractility (inotropy) is determined at the electrically stimulated left-hand atrium. The mean values of the percentage change to the starting value from six different determinations in each test is given hereinafter.

[4] = system: isolated left-hand atrium; assay: Inotropic effectiveness in electrically stimulated left-hand atrium of guinea pigs; parameters: species or system guinea pig; settings: Cavia porcellus, mean percentage change to starting value, six determinations, read-out: Inotropic Effect; for activation at 100 µM: 1 × 10^-4 mol/l, A in 1 × 10^-4 molar citric acid, B in tetraglycol and dilute hydrochloric acid
Procedure: as §5, §6

[5] = system: benzodiazepin-receptors; assay: Inhibition of 3H-Flunitrazepam binding (benzodiazepin-receptors); settings: for IC50: log-probit-analysis
Text: as §1, §2, §3, §4

[6] = 1 × 10^-3 mol/l, in tetraglycol and dilute hydrochloric acid

T1 sequence (P31652 whole entry): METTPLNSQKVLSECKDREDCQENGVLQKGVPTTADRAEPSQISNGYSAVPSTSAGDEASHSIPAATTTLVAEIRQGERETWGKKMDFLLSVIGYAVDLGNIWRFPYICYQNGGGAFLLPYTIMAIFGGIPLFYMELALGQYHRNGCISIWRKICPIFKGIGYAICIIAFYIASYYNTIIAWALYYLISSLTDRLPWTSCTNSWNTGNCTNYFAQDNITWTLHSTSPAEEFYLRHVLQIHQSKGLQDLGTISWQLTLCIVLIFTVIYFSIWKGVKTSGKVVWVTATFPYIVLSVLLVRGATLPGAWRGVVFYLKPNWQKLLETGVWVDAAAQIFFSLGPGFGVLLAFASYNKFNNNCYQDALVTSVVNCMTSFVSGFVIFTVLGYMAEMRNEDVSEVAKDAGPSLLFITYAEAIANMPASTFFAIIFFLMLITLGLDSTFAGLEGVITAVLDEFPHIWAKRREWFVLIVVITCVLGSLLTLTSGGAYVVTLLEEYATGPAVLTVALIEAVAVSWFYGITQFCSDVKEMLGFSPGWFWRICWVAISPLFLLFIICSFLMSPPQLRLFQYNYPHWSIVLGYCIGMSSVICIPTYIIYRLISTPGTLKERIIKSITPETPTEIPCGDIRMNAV

C[N+](C)([O-])CCC=C1c2ccccc2CCc2ccccc21 [Amitriptylinoxid, reference compound]
IC50 [1]: 24 µM

O=c1ccc(-c2ccc(Cn3ccnc3)s2)n[nH]1 [Compound A, 6-[5-(Imidazol-1-yl-methyl)-thien-2-yl]-3(2H)-pyridazinone]
Blood Pressure diast. ([2]; 0.1 mg/kg i.v.): -1%
Blood Pressure syst. ([2]; 0.1 mg/kg i.v.): +1%
Myocardial Contractility ([2]; 0.1 mg/kg i.v.): +24%
Pulse Frequency ([2]; 0.1 mg/kg i.v.): +1%
Blood Pressure diast. ([2]; 0.316 mg/kg i.v.): -6%
Blood Pressure syst. ([2]; 0.316 mg/kg i.v.): 0%
Myocardial Contractility ([2]; 0.316 mg/kg i.v.): +32%
Pulse Frequency ([2]; 0.316 mg/kg i.v.): +1%
Blood Pressure diast. ([2]; 1.0 mg/kg i.v.): -18%
Blood Pressure syst. ([2]; 1.0 mg/kg i.v.): -8%
Myocardial Contractility ([2]; 1.0 mg/kg i.v.): +42%
Pulse Frequency ([2]; 1.0 mg/kg i.v.): -9%
Blood Pressure diast. ([2]; 3.16 mg/kg i.v.): -33%
Blood Pressure syst. ([2]; 3.16 mg/kg i.v.): -19%
Myocardial Contractility ([2]; 3.16 mg/kg i.v.): +51%
Pulse Frequency ([2]; 3.16 mg/kg i.v.): -15%
activation at 100 µM [3]: 19%
activation at 100 µM [4]: 44%

Nc1cc(-c2ccncc2)c[nH]c1=O [Compound B, 3-Amino-5-(4-pyridyl)-2-pyridone, reference compound]
Blood Pressure diast. ([2]; 0.1 mg/kg i.v.): -3%
Blood Pressure syst. ([2]; 0.1 mg/kg i.v.): -3%
Myocardial Contractility ([2]; 0.1 mg/kg i.v.): +5%
Pulse Frequency ([2]; 0.1 mg/kg i.v.): 0%
Blood Pressure diast. ([2]; 0.316 mg/kg i.v.): -4%
Blood Pressure syst. ([2]; 0.316 mg/kg i.v.): -2%
Myocardial Contractility ([2]; 0.316 mg/kg i.v.): +25%
Pulse Frequency ([2]; 0.316 mg/kg i.v.): +1%
Blood Pressure diast. ([2]; 1.0 mg/kg i.v.): -22%
Blood Pressure syst. ([2]; 1.0 mg/kg i.v.): -15%
Myocardial Contractility ([2]; 1.0 mg/kg i.v.): +40%
Pulse Frequency ([2]; 1.0 mg/kg i.v.): 0%
Blood Pressure diast. ([2]; 3.16 mg/kg i.v.): -51%
Blood Pressure syst. ([2]; 3.16 mg/kg i.v.): -35%
Myocardial Contractility ([2]; 3.16 mg/kg i.v.): +30%
Pulse Frequency ([2]; 3.16 mg/kg i.v.): -20%
activation at 1000 µM [3, 6]: 20%
activation at 100 µM [3]: 2%
activation at 1000 µM [4, 6]: 21%
activation at 100 µM [4]: 4%

Cl.O=c1ccc(-c2ccc(Cn3cccn3)s2)nn1CCN1CCOCC1 [D, 2-(2-Morpholino-ethyl)-6-[5-(pyrazol-1-yl-methyl)-thien-2-yl]-3(2H)-pyridazinon-hydrochloride]
3H-Flunitrazepam % Inhibition ([5]; 1 × 10^-4 mole/l): 49%
3H-Flunitrazepam % Inhibition ([5]; 1 × 10^-6 mole/l): 2%
IC50 [5]: 60 µM
3H-Imipramin % Inhibition ([1]; 1 × 10^-4): 87%
3H-Imipramin % Inhibition ([1]; 1 × 10^-6 mole/l): 34%
IC50 [1]: 20 µM

Cl.O=c1ccc(-c2ccc(Cn3ccnc3)s2)nn1CCN1CCOCC1 [E, 6-[5-(Imidazol-1-yl-methyl)-thien-2-yl]-2-(2-morpholino-ethyl)-3(2H)-pyridazinon-hydrochloride]
3H-Flunitrazepam % Inhibition ([5]; 1 × 10^-4 mole/l): 74%
3H-Flunitrazepam % Inhibition ([5]; 1 × 10^-6 mole/l): 19%
IC50 [5]: 9 µM
3H-Imipramin % Inhibition ([1]; 1 × 10^-4): 40%
3H-Imipramin % Inhibition ([1]; 1 × 10^-6 mole/l): 4%

Cl.O=c1ccc(-c2ccc(Cn3ccnc3)s2)nn1CCN1CCCCC1 [F, 6-[5-(Imidazol-1-yl-methyl)-thien-2-yl]-2-(2-piperidino-ethyl)-3(2H)-pyridazinon-hydrochloride]
3H-Flunitrazepam % Inhibition ([5]; 1 × 10^-4 mole/l): 66%
3H-Flunitrazepam % Inhibition ([5]; 1 × 10^-6 mole/l): 12%
IC50 [5]: 90 µM
3H-Imipramin % Inhibition ([1]; 1 × 10^-4): 62%
3H-Imipramin % Inhibition ([1]; 1 × 10^-6 mole/l): 7%
IC50 [1]: 7 µM

Cl.O=c1ccc(-c2ccc(Cn3ccnc3)s2)nn1CCCN1CCCCC1 [G, 6-[5-(Imidazol-1-yl-methyl)-thien-2-yl]-2-(3-piperidino-propyl)-3(2H)-pyridazinon-hydrochloride]
3H-Flunitrazepam % Inhibition ([5]; 1 × 10^-4 mole/l): 40%
3H-Flunitrazepam % Inhibition ([5]; 1 × 10^-6 mole/l): 4%
3H-Imipramin % Inhibition ([1]; 1 × 10^-4): 86%
3H-Imipramin % Inhibition ([1]; 1 × 10^-6 mole/l): 27%
IC50 [1]: 3 µM

Cc1cc(-c2ccccc2)nn(CCN2CCOCC2)c1=O.Cl [H, 4-Methyl-2-(2-morpholino-ethyl)-6-phenyl-3(2H)-pyridazinon-hydrochloride, reference compound]
3H-Flunitrazepam % Inhibition ([5]; 1 × 10^-4 mole/l): 14%
3H-Flunitrazepam % Inhibition ([5]; 1 × 10^-6 mole/l): 0%
3H-Imipramin % Inhibition ([1]; 1 × 10^-4): 36%
3H-Imipramin % Inhibition ([1]; 1 × 10^-6 mole/l): 8%

CN1CCN=C(c2ccccc2)c2cc(Cl)ccc21 [Medazepam, reference compound]
IC50 [5]: 3.9 µM
